# According to patent US20210186947A1, “TOMM6-INTERACTING EXTRACTS AND COMPOUNDS FOR USE IN THE TREATMENT AND PROPHYLAXIS OF NERVOUS SYSTEM DISEASES, ATHEROSCLEROSIS, HEPATITIS B INFECTION AND HUMAN PAPILLOMA VIRUS (HPV) INFECTION” (ETH ZURICH, priority 2018, published 2021):
# Key:
# [1] = test system: angiotensin II AT2 receptor (AT2R, AGTR2); assay: AT2R protein aggregation assay in HEK cells, immunoblot; format: cell-based, human; details: 10 microM for 72 h
# Procedure: Proteins were also extracted from yeast cells and HEK cells expressing the indicated protein (i.e. HBsAg or AGTR2) as described above. Neuronal cell loss and hyperphosphorylated Tau in hippocampi of 15 months-old Tg2576 mice subjected to the CUMS protocol for 3 months was determined with crude homogenates of dissected hippocampi by direct binding assay with neuron-specific [^125I]-labeled anti-NeuN antibody (MAB377, clone A60, EMD Millipore, Merck KGaA, Darmstadt, Germany) and [^125I]-labeled AT8 antibody similarly as described (AbdAlla et al., J. Biol. Chem. 284, 6554-6565 (2009)).
# In the second non-Abeta-based protein aggregation assay, different plant extracts were tested in a mammalian cell system, which analyzed the protein aggregation of the angiotensin II AT2 receptor (AT2R, AGTR2) protein in human embryonic kidney (HEK) cells. The system has physiological relevance because this cellular system is capable to reproduce AT2R protein aggregation, which also occurs in brains of AD patients and AD animal models (AbdAlla et al., J. Biol. Chem. 284, 6554-6565 (2009); AbdAlla et al., J. Biol. Chem. 284, 6566-6574 (2009)). The AT2 receptor in human embryonic kidney (HEK) cells forms stable dimers/oligomers under pro-oxidant conditions, which are resistant to urea-containing reducing SDS-PAGE (FIG. 2A, and AbdAlla et al., J. Biol. Chem. 284, 6566-6574 (2009)). […]
# [2] = test system: hyperphosphorylated PHF-Tau; assay: Hippocampal hyperphosphorylated PHF-Tau in Tg2576 mice subjected to CUMS, binding assay with [125I]-labeled AT8 antibody; format: in vivo; details: 15 months-old Tg2576 mice, 3 months of CUMS, treated during CUMS; compounds 10 mg/kg/d
# [3] = test system: hippocampal neuronal cell bodies (NeuN); assay: Hippocampal neuronal loss in Tg2576 mice subjected to CUMS, binding assay with [125I]-labeled anti-NeuN antibody; format: in vivo; details: 15 months-old Tg2576 mice, 3 months of CUMS, treated during CUMS; compounds 10 mg/kg/d
# [4] = target: T1, Tomm6 (Mus musculus, UniProt Q9CQN3); assay: Immunoblot detection of hippocampal Tomm6 protein in treated Tg2576 mice; format: in vivo; details: aged Tg2576 mice treated for 6 months
# T1 construct: hippocampi were isolated from 5-10 aged Tg2576 mice, pulverized under liquid nitrogen and solubilized; from tissue; host or cells: hippocampus of Tg2576 mice
# T1 sequence (Q9CQN3 1-74): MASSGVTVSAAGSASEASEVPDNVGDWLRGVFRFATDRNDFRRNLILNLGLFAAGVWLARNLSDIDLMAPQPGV
# [5] = mouse, in vivo, po, 100 mg/kg/day
smiles,measurement,setting,value
"O=C(O)c1c(O)c(O)c2c(c1O)C(=O)c1ccccc1C2=O [Compound-2, purpurin-3-carboxylic acid]",aggregation of the AT2 receptor,[1],inhibited the aggregation of the AT2 receptor
same,hippocampal content of hyperphosphorylated PHF-Tau,[2],inhibited hippocampal PHF-Tau hyperphosphorylation
same,hippocampal neuronal loss,[3],prevented the CUMS-induced hippocampal neuronal loss
same,hippocampal protein content of Tomm6,[4],substantially increased
same,daily food intake / food consumption,[5],did not significantly alter
